Assay results published in patent US9376436B2, “2-(pyridin-2yl)-1, 7-diaza-spiro [4.4] nonane-6-one compound as voltage-gated sodium channels modulators” (CONVERGENCE PHARMACEUTICALS LIMITED, priority 2011, dated 2016).
Structures can show the parent of a compound that is named as a salt. Where two headings read alike, the source gives them in different places.

Molecular target: T1, hNaV1.7 (Homo sapiens, UniProt Q15858)
T1 construct: expressed in transfected cells; host or cells: HEK293
Assay: QPatch NaV1.7 assay (whole-cell patch clamp, QPatch16x)
Format: cell-based
Settings: HEK293-hNaV1.7 cells
Method: The compounds of the invention were tested in a QPatch NaV1.7 assay.
HEK293-hNaV1.7 cells were grown in DMEM-F12+10% FBS culture media at 37° C. At a confluency of 50-70% cells were dissociated from culture flasks & triturated to ensure unicellular cell suspension; cell density was measured & adjusted to 2-3×10^6 cells/ml. Recordings were obtained using QPatch16x. The external solution was (in mM): NaCl, 128; KCl, 5; MgCl2, 2; CaCl2, 2; Glucose, 30; HEPES, 15; pH 7.3, 305-315 mOsm. Following seal formation and whole-cell access using internal solution (containing in mM: CsF, 135; EGTA/CsOH, 1/5; HEPES 10; NaCl, 10; pH 7.3, 310-320 mOsM), voltage pulse protocols were applied. Initially a steady state inactivation voltage protocol was used to determine the half-maximal voltage for steady state inactivation (V1/2 SSI). Two holding voltages were used to determine test drug inhibition: −90 mV, where most of the channels are in a closed state; and V1/2 SSI, where half of the channels are inactivated. Currents were elicited […] by stepping to a membrane potential of 0 mV for 20 ms. Four-point cumulative concentration responses were derived by determining the peak current amplitude at each concentration of test drug over 120 second application. Curves were fitted with the Hill equation yielding pIC50 values at −90 mV and V1/2 SSI holding potentials.

[1] = holding voltage V1/2 SSI (half of channels inactivated), read-out: QP Nav1.7 SSI vhalf pIC50 (converted)
[2] = holding voltage −90 mV (most channels closed), read-out: QP Nav1.7 −90 mV pIC50 (converted)

T1 sequence (Q15858 whole entry): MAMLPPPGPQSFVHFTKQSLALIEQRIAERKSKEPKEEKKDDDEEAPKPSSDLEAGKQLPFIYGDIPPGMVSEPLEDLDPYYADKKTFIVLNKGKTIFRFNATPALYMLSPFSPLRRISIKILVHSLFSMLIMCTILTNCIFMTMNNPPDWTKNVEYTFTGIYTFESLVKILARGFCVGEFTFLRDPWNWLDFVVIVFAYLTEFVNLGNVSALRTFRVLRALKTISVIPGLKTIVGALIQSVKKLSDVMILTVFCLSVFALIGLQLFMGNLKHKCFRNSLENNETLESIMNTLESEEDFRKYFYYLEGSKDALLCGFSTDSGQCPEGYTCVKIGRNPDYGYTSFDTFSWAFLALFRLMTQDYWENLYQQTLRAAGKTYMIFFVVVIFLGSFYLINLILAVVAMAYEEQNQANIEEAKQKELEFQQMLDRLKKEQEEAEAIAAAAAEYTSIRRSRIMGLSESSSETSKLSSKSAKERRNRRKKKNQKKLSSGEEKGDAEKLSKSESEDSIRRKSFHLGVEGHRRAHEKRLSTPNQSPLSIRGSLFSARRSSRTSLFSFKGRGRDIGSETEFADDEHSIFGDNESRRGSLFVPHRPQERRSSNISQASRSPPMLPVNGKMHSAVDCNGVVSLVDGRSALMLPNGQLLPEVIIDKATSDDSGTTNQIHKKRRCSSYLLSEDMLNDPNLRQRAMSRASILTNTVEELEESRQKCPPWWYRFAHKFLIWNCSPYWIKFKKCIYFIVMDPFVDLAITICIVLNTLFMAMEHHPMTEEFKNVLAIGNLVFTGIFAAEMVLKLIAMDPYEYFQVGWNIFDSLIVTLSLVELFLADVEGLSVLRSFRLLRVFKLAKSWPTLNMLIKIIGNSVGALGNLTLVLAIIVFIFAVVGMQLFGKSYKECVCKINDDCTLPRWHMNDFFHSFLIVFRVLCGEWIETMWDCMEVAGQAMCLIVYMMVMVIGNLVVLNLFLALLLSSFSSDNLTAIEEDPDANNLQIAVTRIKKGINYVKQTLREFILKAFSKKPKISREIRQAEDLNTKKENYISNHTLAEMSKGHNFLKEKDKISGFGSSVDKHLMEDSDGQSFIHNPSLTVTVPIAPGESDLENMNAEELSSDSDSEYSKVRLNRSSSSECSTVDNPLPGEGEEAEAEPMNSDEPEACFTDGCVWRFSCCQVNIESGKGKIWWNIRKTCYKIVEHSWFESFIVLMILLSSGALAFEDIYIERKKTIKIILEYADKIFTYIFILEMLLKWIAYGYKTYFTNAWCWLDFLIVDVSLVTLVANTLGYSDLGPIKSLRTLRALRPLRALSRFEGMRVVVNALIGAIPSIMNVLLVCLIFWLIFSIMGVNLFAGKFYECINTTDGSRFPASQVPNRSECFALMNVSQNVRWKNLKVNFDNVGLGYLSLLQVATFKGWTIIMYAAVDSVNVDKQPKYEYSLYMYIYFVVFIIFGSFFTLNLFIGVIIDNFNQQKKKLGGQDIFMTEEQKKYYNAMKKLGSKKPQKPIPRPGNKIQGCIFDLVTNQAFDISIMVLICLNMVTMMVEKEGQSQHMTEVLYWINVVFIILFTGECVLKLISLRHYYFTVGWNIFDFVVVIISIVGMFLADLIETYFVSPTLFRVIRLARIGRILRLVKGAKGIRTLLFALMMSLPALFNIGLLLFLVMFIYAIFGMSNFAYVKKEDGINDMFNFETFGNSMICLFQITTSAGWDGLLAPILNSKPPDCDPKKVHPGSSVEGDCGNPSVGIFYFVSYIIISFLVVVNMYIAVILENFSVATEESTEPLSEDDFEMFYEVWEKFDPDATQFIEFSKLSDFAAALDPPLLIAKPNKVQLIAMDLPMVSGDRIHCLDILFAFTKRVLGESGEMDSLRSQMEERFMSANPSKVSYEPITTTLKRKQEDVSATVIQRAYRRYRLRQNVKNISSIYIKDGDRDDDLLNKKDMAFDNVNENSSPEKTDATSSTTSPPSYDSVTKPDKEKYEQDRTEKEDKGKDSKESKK

| Structure (SMILES) | IC50 [1] [µM] | IC50 [2] [µM] |
| --- | --- | --- |
| Cc1cc(-c2ccc(C(F)(F)F)cc2)cc([C@@H]2CC[C@]3(CCNC3=O)N2C)n1 [Example 228, (2S,5R)-1-Methyl-2-[6-methyl-4-[4-(trifluoromethyl)phenyl]-2-pyridyl]-1,7-diazaspiro[4.4]nonan-6-one hydrochloride] | 3.16 | 20 |
| CN1CC[C@@]2(CC[C@H](c3cc(-c4ccc(F)cc4F)ccn3)N2)C1=O [Example 9, (2R,5S)-2-[4-(2,4-Difluorophenyl)-2-pyridyl]-7-methyl-1,7-diazaspiro[4.4]nonan-6-one hydrochloride] | 63.1 | 1000 |
| CC(C)COc1cc(-c2ccnc([C@H]3CC[C@@]4(CCN(C)C4=O)N3)c2)ccc1F [Example 194, (2R,5S)-2-[4-(4-Fluoro-3-isobutoxy-phenyl)-2-pyridyl]-7-methyl-1,7-diazaspiro[4.4]nonan-6-one hydrochloride] | 1 | 15.8 |
| CCc1cccc(-c2cc(C)nc([C@H]3CC[C@@]4(CCN(C)C4=O)N3)c2)c1 [Example 205, (2R,5S)-2-[4-(3-Ethylphenyl)-6-methyl-2-pyridyl]-7-methyl-1,7-diazaspiro[4.4]nonan-6-one hydrochloride] | 6.31 | 63.1 |
| CN1CC[C@@]2(CC[C@H](c3cc(-c4cc(OCCF)ccc4F)ccn3)N2)C1=O [Example 251, (2R,5S)-2-[4-[2-Fluoro-5-(2-fluoroethoxyl)phenyl]-2-pyridyl]-7-methyl-1,7-diazaspiro[4.4]nonan-6-one hydrochloride] | 39.8 | 398 |
| COc1ccc(F)c(-c2cc(C)nc([C@H]3CC[C@@]4(CCN(C)C4=O)N3)c2)c1 [Example 195, (2R,5S)-2-[4-(2-Fluoro-5-methoxy-phenyl)-6-methyl-2-pyridyl]-7-methyl-1,7-diazaspiro[4.4]nonan-6-one hydrochloride] | 5.01 | 100 |
| CN1CC[C@@]2(CC[C@H](c3cc(-c4cccc5cccnc45)ccn3)N2)C1=O [Example 164, (2R,5S)-7-Methyl-2-[4-(8-quinolyl)-2-pyridyl]-1,7-diazaspiro[4.4]nonan-6-one hydrochloride] | 39.8 | 1260 |
| CCOc1ccc(F)c(-c2ccnc([C@H]3CC[C@@]4(CCCNC4=O)N3)c2)c1 [Example 108, (2R,5R)-2-[4-(5-Ethoxy-2-fluoro-phenyl)-pyridin-2-yl]-1,7-diaza-spiro[4.5]decan-6-one hydrochloride] | 0.0631 | 1.26 |
| CC(Oc1ccc(F)c(-c2ccnc([C@H]3CC[C@@]4(CCN(C)C4=O)N3)c2)c1)C1CC1 (stereo partly drawn) [Example 255, (2R,5S)-2-[4-[5-(1-(Cyclopropyl)ethoxy)-2-fluoro-phenyl]-2-pyridyl]-7-methyl-1,7-diazaspiro[4.4]nonan-6-one hydrochloride] | 10 | 100 |
| CCC(=O)c1ccc(F)c(-c2ccnc([C@H]3CC[C@@]4(CCN(C)C4=O)N3)c2)c1 [Example 257, (2R,5S)-2-[4-(2-Fluoro-5-propanoyl-phenyl)-2-pyridyl]-7-methyl-1,7-diazaspiro[4.4]nonan-6-one hydrochloride] | 63.1 | 2510 |
| Cc1cc(-c2cc(C(F)(F)F)ccc2C#N)cc([C@H]2CC[C@]3(CCN(C)C3=O)N2)n1 [Example 22, 2-[2-Methyl-6-[(2R,5R)-7-methyl-6-oxo-1,7-diazaspiro[4.4]-nonan-2-yl]-4-pyridyl]-4-(trifluoromethyl)-benzonitrile hydrochloride] | 158 | 1000 |
| CN1CC[C@]2(CC[C@H](c3cc(-c4ccc(C(F)(F)F)cc4)c(OC(C)(C)C)cn3)N2)C1=O [Example 65, (2R,5R)-2-[5-tert-Butoxy-4-[4-(trifluoromethyl)-phenyl]-2-pyridyl]-7-methyl-1,7-diazaspiro[4.4]nonan-6-one hydrochloride] | 1.58 | 31.6 |
| Cc1cc(-c2ccc(C(F)(F)F)cc2)cc([C@H]2CC[C@]3(CCCNC3=O)N2)n1 [Example 100, (2R,5S)-2-[6-Methyl-4-(4-trifluoromethyl-phenyl)-pyridin-2-yl]-1,7-diaza-spiro[4.5]decan-6-one hydrochloride] | 0.2 | 1 |
| Cc1c(-c2ccc(F)cc2)ccnc1[C@@H]1CC[C@]2(CCN(C)C2=O)N1 [Example 18, (2S,5R)-7-Methyl-2-[3-methyl-4-[4-fluorophenyl]-2-pyridyl]-1,7-diazaspiro[4.4]nonan-6-one hydrochloride] | 31.6 | 794 |
| CCOc1ccc(C)c(-c2ccnc([C@H]3CC[C@@]4(CCN(C)C4=O)N3)c2)c1 [Example 178, (2R,5S)-2-[4-(5-Ethoxy-2-methyl-phenyl)-2-pyridyl]-7-methyl-1,7-diazaspiro[4.4]nonan-6-one hydrochloride] | 25.1 | 631 |
| Cc1ccc(-c2cc(C)nc([C@H]3CC[C@@]4(CCN(C)C4=O)N3)c2)cc1 [Example 87, (2R,5S)-7-Methyl-2-[6-methyl-4-(p-tolyl)-2-pyridyl]-1,7-diazaspiro[4.4]nonan-6-one hydrochloride] | 6.31 | 126 |
| CCc1cccc(-c2cc(C)nc([C@H]3CC[C@@]4(CCN(C)C4=O)N3)c2)c1F [Example 206, (2R,5S)-2-[4-(3-Ethyl-2-fluoro-phenyl)-6-methyl-2-pyridyl]-7-methyl-1,7-diazaspiro[4.4]nonan-6-one hydrochloride] | 10 | 63.1 |
| CC1(C)C[C@]2(CC[C@@H](c3cc(-c4ccc(C(F)(F)F)cc4)ccn3)N2)C(=O)N1 [Example 47, (2S,5R)-8,8-Dimethyl-2-[4-[4-(trifluoromethyl)phenyl]-2-pyridyl]-1,7-diazaspiro[4.4]nonan-6-one hydrochloride] | 12.6 | 31.6 |
| CCOc1ccc(F)c(-c2cc(OC)nc([C@@H]3CC[C@@]4(CCN(C)C4=O)N3)c2)c1 [Example 249, (2S,5S)-2-[4-(5-Ethoxy-2-fluoro-phenyl)-6-methoxy-2-pyridyl]-7-methyl-1,7-diazaspiro[4.4]nonan-6-one hydrochloride] | 1.26 | 15.8 |
| CC(C)Oc1ccc(-c2ccnc([C@@H]3CC[C@@]4(CCN(C)C4=O)N3)c2)cc1 [Example 161, (2S,5S)-2-[4-(4-Isopropoxyphenyl)-2-pyridyl]-7-methyl-1,7-diazaspiro[4.4]nonan-6-one hydrochloride] | 39.8 | 126 |
| Cc1cc(C)cc(-c2ccnc([C@H]3CC[C@@]4(CCN(C)C4=O)N3)c2)c1 [Example 174, (2R,5S)-2-[4-(3,5-Dimethylphenyl)-2-pyridyl]-7-methyl-1,7-diazaspiro[4.4]nonan-6-one hydrochloride] | 25.1 | 126 |
| CN1CCC[C@]2(CC[C@@H](c3cc(-c4ccc(C(F)(F)F)cc4)ccn3)N2)C1=O [Example 69, (2S,5S)-7-Methyl-2-[4-(4-trifluoromethyl-phenyl)-pyridin-2-yl]-1,7-diaza-spiro[4.5]decan-6-one hydrochloride] | 7.94 | 31.6 |
| CCOc1ccc(-c2ccnc([C@H]3CC[C@@]4(CCN(C)C4=O)N3)c2)cc1C [Example 167, (2R,5S)-2-[4-(4-Ethoxy-3-methyl-phenyl)-2-pyridyl]-7-methyl-1,7-diazaspiro[4.4]nonan-6-one hydrochloride] | 39.8 | 39.8 |
| Cc1cc(-c2cc(C(F)(F)F)ccc2C(N)=O)cc([C@@H]2CC[C@@]3(CCN(C)C3=O)N2)n1 [Example 25, 2-[2-Methyl-6-[(2S,5S)-7-methyl-6-oxo-1,7-diazaspiro[4.4]nonan-2-yl]-4-pyridyl]-4-(trifluoromethyl)benzamide hydrochloride] | 1580 |  |
| CCOc1cccc(-c2ccnc([C@H]3CC[C@@]4(CCN(C)C4=O)N3)c2)c1 [Example 82, (2R,5S)-2-[4-(3-Ethoxyphenyl)-2-pyridyl]-7-methyl-1,7-diazaspiro[4.4]nonan-6-one hydrochloride] | 7.94 | 200 |
| CCOc1ccc(F)c(-c2cc([C@H]3CC[C@@]4(CCN(C)C4=O)N3)ncc2CC)c1 [Example 241, (2R,5S)-2-[4-(5-Ethoxy-2-fluoro-phenyl)-5-ethyl-2-pyridyl]-7-methyl-1,7-diazaspiro[4.4]nonan-6-one hydrochloride] | 15.8 | 100 |
| Cc1cc(-c2ccc(C(F)(F)F)cc2)cc([C@H]2CC[C@@]3(CCCNC3=O)N2)n1 [Example 99, (2R,5R)-2-[6-Methyl-4-(4-trifluoromethyl-phenyl)-pyridin-2-yl]-1,7-diaza-spiro[4.5]decan-6-one hydrochloride] | 1 | 15.8 |
| COc1ccc(Cl)c(-c2ccnc([C@H]3CC[C@@]4(CCN(C)C4=O)N3)c2)c1 [Example 83, (2R,5S)-2-[4-(2-Chloro-5-methoxy-phenyl)-2-pyridyl]-7-methyl-1,7-diazaspiro[4.4]nonan-6-one hydrochloride] | 31.6 | 200 |
